In general, pIC50 refers to −log10 of the IC50, conventionally taken in molar units.

pIC50: −log10 of the molar value.

The record followed here is patent publication US20260184708A1, “PYRIDAZINONES AND METHODS OF USE THEREOF” (GFB (ABC), LLC, priority 2017, published 2026).

One assay deals with T1, TRPC5 (Homo sapiens, UniProt Q9UL62).
T1 construct: expressed in transfected cells; host or cells: HEK 293
T1 sequence (Q9UL62 1-973): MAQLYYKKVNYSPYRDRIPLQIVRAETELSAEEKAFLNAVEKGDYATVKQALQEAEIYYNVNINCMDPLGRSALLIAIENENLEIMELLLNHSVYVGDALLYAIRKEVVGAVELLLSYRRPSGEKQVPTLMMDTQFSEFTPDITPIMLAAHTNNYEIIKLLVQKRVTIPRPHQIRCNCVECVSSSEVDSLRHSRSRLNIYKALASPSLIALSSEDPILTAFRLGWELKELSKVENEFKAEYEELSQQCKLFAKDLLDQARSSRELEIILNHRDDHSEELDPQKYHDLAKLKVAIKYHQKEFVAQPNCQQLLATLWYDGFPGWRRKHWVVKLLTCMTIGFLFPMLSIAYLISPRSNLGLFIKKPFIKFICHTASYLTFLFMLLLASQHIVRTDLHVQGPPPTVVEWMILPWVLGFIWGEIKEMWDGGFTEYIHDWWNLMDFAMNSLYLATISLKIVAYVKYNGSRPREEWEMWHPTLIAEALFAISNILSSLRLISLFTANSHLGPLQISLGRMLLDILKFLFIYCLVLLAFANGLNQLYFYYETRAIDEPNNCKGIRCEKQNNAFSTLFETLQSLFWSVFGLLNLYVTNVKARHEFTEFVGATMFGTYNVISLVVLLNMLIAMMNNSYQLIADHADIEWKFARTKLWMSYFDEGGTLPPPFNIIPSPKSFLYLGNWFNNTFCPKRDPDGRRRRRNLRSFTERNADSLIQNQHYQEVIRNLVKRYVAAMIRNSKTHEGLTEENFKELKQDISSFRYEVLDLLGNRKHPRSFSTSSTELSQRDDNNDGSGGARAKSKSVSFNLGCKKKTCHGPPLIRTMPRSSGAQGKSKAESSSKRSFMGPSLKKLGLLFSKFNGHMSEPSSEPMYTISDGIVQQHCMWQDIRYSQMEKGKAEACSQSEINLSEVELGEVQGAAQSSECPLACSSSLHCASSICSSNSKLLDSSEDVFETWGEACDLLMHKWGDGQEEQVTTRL
Nature of the assay: TRPC5 Fluorescence Assay - FLIPR format (HEK-TREx hTRPC5, Riluzole stimulation). The assay is classed as cell-based. The settings on record: Table 7, read-out: TRPC5-FLIPR IC50. The protocol: • Cell line: ICLN-001633 • Base Cell: HEK • Channel: TRPC5 • Species: Human • Thaw ID: multiple • Passage: multiple
FLIPR Assay Buffer (Earls Balanced Salt Solution (EBSS) was prepared as follows:
Test Agent Preparation: Compounds were made up to, or supplied as, a 10 mM stock solution generally using DMSO as the vehicle. 10-point dose response curves were generated using the Echo-550 acoustic dispenser. Compound source plates were made by serially diluting compound stocks to create 10 mM, 1 mM, and 0.1 mM solutions in DMSO into Echo certified LDV plates. The Echo then serially spotted 100% DMSO stock solutions into source dose response plates to generate a 4-fold dilution scheme. 100% DMSO was added to the spotted dose response plates to bring the final volume to 5 μl. […] of the dose response stock plate was then spotted into pre-incubation and stimulation assay plates. 50 μl of pre-incubation buffer and 100 μl of stimulation buffer was then added to the plates resulting in a final assay test concentration range of 30 μM to 0.0001 μM with a final DMSO concentration of 0.3%.
Experimental Methods: Cells expressing TRPC5 (HEK-TREx hTRPC5) are plated onto 384 well, black PDL-coated microplates and maintained in TRPC5 growth media the day prior to use for experiments. TRPC5 expression is induced by the application of […] tetracycline at the time of plating. Media is removed from the plates and 10 μl of 4 μM of Fluo-4 AM (mixed with equal volume of Pluronic F-127) in EBSS is added to the cells. Cells are incubated at room temperature, protected from light, for 60-90 minutes. After the incubation period, the dye is removed and replaced with 10 μl of EBSS. Cell, pre-incubation and stimulation plates are loaded onto the FLIPR-II and the assay is initiated. The FLIPR measures a 10 second baseline and then adds 10 μl of 2× compounds (or controls). Changes in fluorescence are monitored for an additional 5 minutes. After the 5 minute pre-incubation, 20 μl of 2× Riluzole (with 1× compound or controls) is added to the cell plate. The final Riluzole stimulation concentration in the assay is 30 μM. After the Riluzole addition, changes in fluorescence are monitored for an additional 5 minutes.
Test Agent Effect: Test agent modulation of TRPC5 calcium response was determined as follows. After the Riluzole, fluorescence was monitored for a 5 minute period. The maximum relative fluorescene response (minus the control response of 1 μM of the control inhibitor) was captured and exported from the FLIPR. Test agent effect was calculated as % inhibition using the following formula: % inhibition=((RFU Test Agent−Plate Average RFU REF INHIB)/(Plate Average RFU Control−Plate Average RFU REF INHIB))×100
Turning to `O=c1[nH]ncc(N2CCc3c(ncnc3Oc3ccccc3C(F)(F)F)C2)c1Cl`, the pIC50 is 6.00 to 11.00.
As for `COc1nn(Cc2ccccc2C(F)F)c2c1CN(c1cn[nH]c(=O)c1Cl)CC2` [drawing 931], the pIC50 was 6.00 to 11.00.
Take `CCCCn1c(Oc2cccc(F)c2)nc2c1CCN(c1cn[nH]c(=O)c1Cl)C2`: the pIC50 was 5.30 to 6.00.
Same read-out and setting: with `O=c1[nH]ncc(N2CCc3c(ncn3Cc3cccnc3CC(F)F)C2)c1Cl` [drawing 929] the figure was 6.00 to 11.00; with `COCc1ncccc1CN1CCN(c2cn[nH]c(=O)c2Cl)CC1` [drawing 926], 6.00 to 11.00.
Take `CCc1ncccc1[C@H](C)n1nnc2c1CCN(c1cn[nH]c(=O)c1Cl)C2` [drawing 928]: the negative-log IC50 (pIC50) is 6.00 to 11.00.
For the compound `CN(Cc1ccccc1C(F)(F)F)c1ncnc2c1CCN(c1cn[nH]c(=O)c1Cl)C2`, the negative-log IC50 (pIC50) is 5.00 to 5.30.

Still in this assay, the particulars now being: Table 9, read-out: hTRPCS-FLIPR IC50.
As to `O=c1[nH]ncc(N2CCN(Cc3ccccc3C(F)(F)F)CC2)c1Cl` [drawing 1036], the pIC50 is 5.30 to 6.00.
Same read-out and setting: in the case of `C[C@H](O)c1ncccc1CN1CCN(c2cn[nH]c(=O)c2Cl)CC1` it was 6.00 to 11.00; in that of `Cc1ccccc1CC1(OC(N)=O)CCN(c2cn[nH]c(=O)c2Cl)CC1`, 5.30 to 6.00; in that of `CCc1ncccc1[C@@H](C)N1CCN(c2cn[nH]c(=O)c2Cl)CC1`, 6.00 to 11.00.
In the case of `CC(F)(F)c1ccccc1CC1(O)CCN(c2cn[nH]c(=O)c2Cl)CC1`, the pIC50 is 6.00 to 11.00.
As for `CC[C@@H](c1cccnc1CC(C)C)C1CCN(c2cn[nH]c(=O)c2Cl)CC1`, the pIC50 was 6.00 to 11.00.
The same measure, in the same setting: in the case of `C[C@@H](O)c1ncccc1CN1CCN(c2cn[nH]c(=O)c2Cl)CC1` it was 5.30 to 6.00; in that of `CCc1ncccc1NC1CCN(c2cn[nH]c(=O)c2Cl)CC1`, 5.00 to 5.30.
The same measure, in the same setting: in the case of `C[C@H](c1ccccc1C(F)(F)F)N1CCN(c2cn[nH]c(=O)c2Cl)CC1=O` it was 5.30 to 6.00.

The assay is the same for the next values; noted with them: Table 10, read-out: TRPCS-FLIPR IC50.
Consider `C[C@@H](c1ccc(Cl)cc1C(F)(F)F)n1nnc2c1CCN(c1cn[nH]c(=O)c1Cl)C2`, for which the pIC50 is 6.00 to 11.00.
For `C[C@H]1c2nnn([C@@H](C)c3ccccc3C(F)(F)F)c2CCN1c1cn[nH]c(=O)c1Cl`, the pIC50 is 6.00 to 11.00.
On the same count and under the same terms, in the case of `CC(=O)Nc1nn(Cc2ccccc2C(F)(F)F)c2c1CN(c1cn[nH]c(=O)c1Cl)CC2` it was 6.00 to 11.00.
Same read-out and setting: with `O=C(c1nn(Cc2ccccc2C(F)F)c2c1CN(c1cn[nH]c(=O)c1Cl)CC2)N1CCOCC1` the figure was 6.00 to 11.00; with `CS(=O)(=O)c1nn(Cc2ccc(F)cc2C(F)F)c2c1CN(c1cn[nH]c(=O)c1Cl)CC2`, 6.00 to 11.00.
Still for that read-out and setting: in the case of `O=c1[nH]ncc(N2CCc3c(Nc4ccc(F)cc4C(F)(F)F)n[nH]c3C2)c1Cl` it was 6.00 to 11.00; in that of `O=c1[nH]ncc(N2CCc3c(cnn3Cc3ccc(F)cc3CN3CCOCC3)C2)c1Cl`, 6.00 to 11.00; in that of `C[C@@H]1CCC[C@H]1Cn1nnc2c1CCN(c1cn[nH]c(=O)c1Cl)C2`, 6.00 to 11.00.
With `C[C@H](c1ccc(Cl)cc1C(F)(F)F)n1nnc2c1CCN(c1cn[nH]c(=O)c1Cl)C2`, the pIC50 was 6.00 to 11.00.
The same measure, in the same setting: in the case of `CCc1ncsc1Cn1nnc2c1CCN(c1cn[nH]c(=O)c1Cl)C2` it was 6.00 to 11.00.
Same read-out and setting: in the case of `COC[C@@H](c1ccc(F)cc1C(F)(F)F)n1cnc2c1CCN(c1cn[nH]c(=O)c1Cl)C2` it was 5.30 to 6.00.
The same measure, in the same setting: with `C[C@H](c1cccnc1CC(F)F)n1nnc2c1CCN(c1cn[nH]c(=O)c1Cl)C2` the figure was 6.00 to 11.00; with `C[C@@H](c1ccc(F)cc1CN1CCN(C)CC1)n1nnc2c1CCN(c1cn[nH]c(=O)c1Cl)C2`, 5.00 to 5.30; with `COc1nn(Cc2ccccc2C(F)(F)F)c2c1CN(c1cn[nH]c(=O)c1Cl)CC2`, 6.00 to 11.00.
Consider `CS(=O)(=O)c1nn(Cc2ccc(F)cc2C(F)(F)F)c2c1CN(c1cn[nH]c(=O)c1Cl)CC2`, for which the pIC50 is 6.00 to 11.00.
In the case of `Cn1c(=O)c2c(n1Cc1ccccc1C(F)(F)F)CCN(c1cn[nH]c(=O)c1Cl)C2`, the negative-log IC50 (pIC50) was 5.30 to 6.00.
The same measure, in the same setting: in the case of `C[C@H]1c2nnn([C@@H](C)c3ccc(F)cc3C(F)(F)F)c2CCN1c1cn[nH]c(=O)c1Cl` it was 6.00 to 11.00; in that of `C[C@@H](c1ccc(F)cc1CN1CCOCC1)n1nnc2c1CCN(c1cn[nH]c(=O)c1Cl)C2`, 5.30 to 6.00; in that of `C[C@H]1CCC[C@H]1Cn1nnc2c1CCN(c1cn[nH]c(=O)c1Cl)C2`, 6.00 to 11.00.
Same read-out and setting: with `NC[C@H](c1ccc(F)cc1C(F)(F)F)n1cnc2c1CCN(c1cn[nH]c(=O)c1Cl)C2` the figure was 5.00 to 5.30; with `COC[C@H](c1ccc(F)cc1C(F)(F)F)n1cnc2c1CCN(c1cn[nH]c(=O)c1Cl)C2`, 6.00 to 11.00; with `O=C1COCCN1Cc1nn(Cc2ccccc2C(F)F)c2c1CN(c1cn[nH]c(=O)c1Cl)CC2`, 6.00 to 11.00.
Turning to `C[C@@H](c1ccc(F)cc1C(F)F)n1nc(C(N)=O)c2c1CCN(c1cn[nH]c(=O)c1Cl)C2`, the negative logarithm of the IC50 (pIC50) was 6.00 to 11.00.
Same read-out and setting: in the case of `O=c1[nH]ncc(N2CCc3c(cnn3Cc3cccnc3[C@@H](O)C(F)(F)F)C2)c1Cl` it was 6.00 to 11.00; in that of `CO[C@H]1CN(c2cn[nH]c(=O)c2Cl)Cc2nnn(Cc3ccccc3C(F)F)c21`, 5.30 to 6.00; in that of `N[C@@H](c1nn(Cc2ccccc2C(F)(F)F)c2c1CN(c1cn[nH]c(=O)c1Cl)CC2)C(F)(F)F`, 5.30 to 6.00.
The same measure, in the same setting: in the case of `COC[C@@H](c1ccccc1C(F)(F)F)n1cnc2c1CCN(c1cn[nH]c(=O)c1Cl)C2` it was 6.00 to 11.00; in that of `O=c1[nH]ncc(N2CCc3c(nnn3Cc3ccccc3CO)C2)c1Cl`, 5.30 to 6.00.
Still for that read-out and setting: with `CN(c1ccc(F)cc1C(F)(F)F)c1n[nH]c2c1CCN(c1cn[nH]c(=O)c1Cl)C2` the figure was 6.00 to 11.00; with `CC(C)C(=O)Nc1nn(Cc2ccccc2C(F)(F)F)c2c1CN(c1cn[nH]c(=O)c1Cl)CC2`, 6.00 to 11.00.
As for `CCCOc1nc2c(n1Cc1ccccc1C(F)(F)F)CCN(c1cn[nH]c(=O)c1Cl)C2`, the pIC50 was 6.00 to 11.00.
The same measure, in the same setting: in the case of `C[C@@H](c1ccccc1C(F)(F)F)n1[nH]c(=O)c2c1CCN(c1cn[nH]c(=O)c1Cl)C2` it was 6.00 to 11.00; in that of `N[C@H](c1nn(Cc2ccccc2C(F)(F)F)c2c1CN(c1cn[nH]c(=O)c1Cl)CC2)C(F)(F)F`, 5.30 to 6.00; in that of `C[C@@H](c1ccccc1C(F)(F)F)n1nc(C(N)=O)c2c1CCN(c1cn[nH]c(=O)c1Cl)C2`, 6.00 to 11.00.
Same read-out and setting: in the case of `C[C@H](c1ccc(F)cc1C(F)(F)F)n1[nH]c(=O)c2c1CCN(c1cn[nH]c(=O)c1Cl)C2` it was 6.00 to 11.00; in that of `C[C@H](c1ccccc1C(F)(F)F)n1[nH]c(=O)c2c1CCN(c1cn[nH]c(=O)c1Cl)C2`, 6.00 to 11.00.
Still for that read-out and setting: in the case of `N[C@@H](c1cc(F)ccc1Cn1nnc2c1CCN(c1cn[nH]c(=O)c1Cl)C2)C(F)(F)F` it was 5.30 to 6.00; in that of `C[C@H](c1ccc(F)cc1CN1CCOCC1)n1nnc2c1CCN(c1cn[nH]c(=O)c1Cl)C2`, 5.30 to 6.00; in that of `C[C@@H]1Cc2c(nnn2[C@H](C)c2ccc(F)cc2C(F)(F)F)CN1c1cn[nH]c(=O)c1Cl`, 6.00 to 11.00.
